The subject of one series is Aphidius rhopalosiphi. As to the kind of experiment: LR50; higher = less toxic. The note with it: other; mortality.
For the next series, the system named is Typhlodromus pyri. Briefly: LR50; higher = less toxic. The note with it: other; mortality.
The next series relates to Daphnia magna. The settings on record: chronic/long-term; duration: 21 days; reproduction.
In another series the test system is Folsomia candida. The note with it: chronic/long-term; duration: 28 days.
In a further series the test system is Apis mellifera. The settings on record: acute, mortality.
Another series relates to Oryctolagus sp. The settings on record: developmental; development.
The next series relates to Rattus norvegicus. The settings on record: for NOAEL: chronic.
In the next series the test system is Oncorhynchus mykiss. The note with it: chronic/long-term; duration: 21 days; growth.

The values that follow come from EPA's ToxValDB 9.5 (doi:10.2903/j.efsa.2015.3936).

For `COC(=O)c1ccccc1S(=O)(=O)NC(=O)Nc1nc(C)nc(OC)n1` [Metsulfuron-methyl], the LR50 with Aphidius rhopalosiphi and in the series with Typhlodromus pyri was greater than 8 g/ha throughout. The NOEC in the series with Daphnia magna is 3.13 mg/L; in the series with Folsomia candida, no less than 250 mg/kg; in the series with Tagia sp. (chronic/long-term, duration: 56 days), 0.83 mg/kg; with Oncorhynchus mykiss, 68 mg/L. The LD50 in the series on Anas platyrhynchos (acute, oral, unspecified) is greater than 2510 mg/kg-day; in the series with Apis mellifera (dermal), greater than 50 µg/piece; in the series on Apis mellifera (oral, unspecified), greater than 44.3 µg/piece; in the series with Rattus norvegicus (acute, oral, mortality) it was greater than 5000 mg/kg-day. Besides, the no observed adverse effect level (NOAEL) stood at 100 mg/kg-day with Anas platyrhynchos (reproductive); 25 mg/kg-day in the series on Oryctolagus sp.; 25 mg/kg-day in the series on Rattus norvegicus; 22.4 mg/kg-day in the series with Rattus norvegicus (duration: 2 years, body weight). Besides, the LC50 is greater than 1280 mg/kg-day with Anas platyrhynchos (short-term, oral, feed) and greater than 1000 mg/kg in the series with Tagia sp. (acute, duration: 14 days, mortality).
